Test results published in US8709406B2, “Prevention and treatment of oxidative stress disorders by gluthathione and phase II detoxification enzymes” (Brassica Foundation for ChemoProtection Research, priority 2001, dated 2014).

Legend:
glutathione reductase = details: ARPE-19; sulforaphane 0.625 and 2.5 μM 24 h, then medium without inducer
Experimental: (§1) Cells were lysed by addition of a digitonin solution (0.8 mg/ml digitonin in 2 mM EDTA, pH 7.8), incubated at 37° C. for 20 min, gently shaken for 20 min at 25° C., and centrifuged at 1,500×g for 20 min at 4° C.
(§2) All measurements were made in 96-well microtiter plates at 25° C., and reaction rates were monitored with a microtiter plate reader. The QR activities of supernatant fractions were determined by procedures developed in our laboratory (Fahey, J. W., Zhang, Y. & Talalay, P. (1997) Proc. Natl. Acad. Sci. USA 94, 10367-10372; Prochaska, H. J., Santamaria, A. B. & Talalay, P. (1992) Proc. Natl. Acad. Sci. USA 89, 2394-2398.). Specific activities were obtained by relating the reaction rates to protein concentrations determined with the bicinchoninic acid reagent (Smith, P. K., Krohn, R. I., Hermanson, G. T., Mallia, A. K., Gratner, F. H., Provenzano, M. D., Fujimoto, E. K., Goeke, N. M., Olson, B. J. & Klenk, D. C. (1985) Anal. Biochem. 150, 76-85). […] Glutathione reductase activity was assayed by mixing 50 μl of cell lysate with 25 μl of 1 mM NADPH, 25 μl of GSSG (20 mg/ml), and 150 μl of 50 mM sodium phosphate, pH 7.5. Initial reaction rates were obtained at 340 nm (Carlberg, I. & Mannervik, B. (1985) Methods Enzymol. 113, 484-490).

[1] = system: glucose 6-phosphate dehydrogenase; details: ARPE-19; sulforaphane 0.625 and 2.5 μM 24 h, then medium without inducer
Experimental: as §1, §2

quinone reductase = details: ARPE-19
Experimental: as §1, §2

HaCaT cells = assay: tert-Butyl hydroperoxide cytotoxicity (MTT, median effect analysis) and protection by sulforaphane; assay type: cell-based, human; details: tert-butyl hydroperoxide 8 h
Experimental: Mouse L1210 leukemia cells, a gift from Dr. Joseph G. Cory, East Carolina State University, Greenville, N.C., were grown in RPMI 1640 medium supplemented with 10% horse serum. All cultures were incubated in a humidified atmosphere of 5% CO2 at 37° C. Media and sera were obtained from Life Technologies (Rockville, Md.).
All experiments were performed in 96-well microliter plates. ARPE-19 and HaCaT cells were seeded at 10,000 cells per well and grown for 24 h before addition of sulforaphane, whereas L1210 cells (5,000 cells/well) were not incubated before sulforaphane treatment. Solutions of sulforaphane (5 mM) in dimethyl sulfoxide were diluted with the cognate culture medium to provide final inducer concentrations of 0.16-5.0 μM. The final DMSO concentrations were 0.1% by volume.
Cell viability was determined by spectroscopic measurement of the reduction of MTT (Carmichael, J., DeGraff, W. G., Gazdar, A. F., Minna, J. D. & Mitchell, J. B. (1987) Cancer Res. 47, 936-942). The culture media were discarded after the designated incubation periods, the cells were washed three times with PBS by use of a microtiter plate washer (Ultrawash Plus, Dynex Technologies, Chantilly, Va.). Each well then received 150 μl of an MTT solution (0.5 mg/ml) in serum-free medium. The plates were incubated for 2 h at 37° C., the MTT solution was discarded, 100 μl of DMSO were added to each well, and the plates were shaken at 200 rpm on an orbital shaker for 5 min. The absorbances of the wells were determined at 555 nm with a microtiter plate reader (Spectra Max Plus, Molecular Devices, Sunnyvale, Calif.). The absorbance of reduced MIT was then compared at each inducer and oxidant concentration to that of untreated control cells that received only the vehicle in which sulforaphane (DMSO) and menadione (DMSO or PBS) were dissolved. In each experiment three identical 96-well plates were used and the means of the absorbance values, the standard deviations of these means, and their coefficients of variation were calculated.
Dose-effect analyses were performed according to the Median Effect Equation, by use of a computer program (Chou, T. C. & Hayball, M. (1996) CalcuSyn for Windows 3.1 and 95: multiple dose effect analyzer and manual for IBM-PC, Biosoft, Cambridge, U.K). The equation: fa/fu=[D/Dm]^m, where fa is the fraction of cells affected by the oxidant, fu is the fraction unaffected (i.e., 1-fa), D is the dose of oxidant required to produce the effect fa, Dm is the concentration of oxidant required to produce a 50% effect, i.e., when fa=fu, and the slope m is a measure of the sigmoidicity of the dose-response curve, and is therefore a measure of cooperativity. The results are analyzed by plotting log(fa/fu) with respect to log D of the oxidant. The computer program provides the slope (m) of the curves, and the goodness of fit (r^2) to linearity.

[2] = after sulforaphane 0.63 μM 24 h
[3] = after sulforaphane 1.25 μM 24 h
[4] = after sulforaphane 2.50 μM 24 h

SMILES: C[S+]([O-])CCCCN=C=S (stereo not shown) [Sulforaphane]
- specific activity of glutathione reductase after removal of sulforaphane (glutathione reductase): continued to rise for 48 h after removal of sulforaphane
- specific activity of glucose 6-phosphate dehydrogenase after removal of sulforaphane [1]: continued to rise for 48 h after removal of sulforaphane
- specific activities of QR in cytosols (quinone reductase; sulforaphane 0-5.0 μM 24 h): rose with exposure to increasing concentrations of sulforaphane
- specific activity of QR after removal of sulforaphane (quinone reductase; sulforaphane 0.625 and 2.5 μM 24 h, then medium without inducer): continued to rise for 48 h after removal of sulforaphane
- Dm (median effect concentration) of tert-butyl hydroperoxide (HaCaT cells; [2]): 113 µM
- m (slope of median effect plot) for tert-butyl hydroperoxide (HaCaT cells; [2]): 0.894
- Dm (median effect concentration) of tert-butyl hydroperoxide (HaCaT cells; [3]): 166 µM
- m (slope of median effect plot) for tert-butyl hydroperoxide (HaCaT cells; [3]): 0.921
- Dm (median effect concentration) of tert-butyl hydroperoxide (HaCaT cells; [4]): 200 µM
- m (slope of median effect plot) for tert-butyl hydroperoxide (HaCaT cells; [4]): 0.768
